The values below come from publication PMC7992063 (ACS Omega, 2021).

“Also recorded” adds a separate entry of the source. Like-named read-outs stand apart in the source and are kept apart here.

The nature of series [1]: in vitro. The conditions noted are these: human.
Series [2] can be described thus: in vitro. The following applies: African green monkey.
The subject of series [3] is SARS-CoV-2 (Strain USA_WA1/2020). Description: microbe, parasite or virus in culture. Format: cell-based.
Series [4] deals with rVSV-SARS-CoV-2 S. It is filed as cell-based.
For series [5], the system named is SARS-CoV-2-nLuc. Description: microbe, parasite or virus in culture. The following applies: Severe acute respiratory syndrome coronavirus 2, A549-ACE2. Format: cell-based.
Series [6] relates to SARS-CoV-2. It is filed as cell-based.
For series [7], the system named is HCoV 229E. Format: cell-based, human coronavirus 229E.
Series [8] deals with Vero cells. The following applies: cited from earlier work.
The subject of series [9] is SARS-CoV-2 (isolate USA WA1/2020). Briefly: microbe, parasite or virus in culture. Format: cell-based. The following applies: for IC50: Severe acute respiratory syndrome coronavirus 2, Calu-3, read-out: IC50 (EC50), infection (dsRNA+ cells/total cell number).
Series [10] concerns SARS-CoV-2 (Strain USA_WA1/2020). Description: microbe, parasite or virus in culture. It is filed as cell-based. The following applies: Severe acute respiratory syndrome coronavirus 2, Caco-2, 72 h.
Series [11] deals with Vero 76 cells. The conditions noted are these: African green monkey.
In series [12] the test system is Calu-3 cells. The conditions noted are these: cited from earlier work.
Series [13] deals with EBOV glycoprotein. The following applies: cited from earlier work.
Series [14] has as its target SARS-CoV-2 spike receptor binding domain (RBD) (Severe acute respiratory syndrome coronavirus 2, UniProt P0DTC2).
For series [15], the system named is murine hepatitis virus (MHV). Description: microbe, parasite or virus in culture. The conditions noted are these: Murine coronavirus. Format: cell-based.
Series [16] concerns SARS-CoV-2. The conditions noted are these: cited from earlier work.
Series [17] has as its system SARS-CoV-2 pseudovirus. The following applies: mouse, in vivo; cited from earlier work.
In series [18] the test system is SARS-CoV-2. It is filed as cell-based. The following applies: 10 μM; 24 h.
Series [19] concerns SARS-CoV-2. Briefly: microbe, parasite or virus in culture. It is filed as cell-based.
Series [20] concerns the target spike RBD. The following applies: read-out: affinity for spike RBD; cited from earlier work.
Series [21] concerns SARS-CoV-2. The conditions noted are these: cited from earlier work. This is another data set of the same source.
Series [22] concerns lysosomal pH. The conditions noted are these: read-out: IC50, lysosomotropic; cited from earlier work.
In series [23] the test system is SARS-CoV-2. Format: cell-based. This is another data set of the same source.
[24] abbreviates: Severe acute respiratory syndrome coronavirus 2, Vero 76.

Consider `COc1ccc2nc3cc(Cl)ccc3c(Nc3cc(CN4CCCC4)c(O)c(CN4CCCC4)c3)c2n1` [pyronaridine, 4-[(7-chloro-2-methoxybenzo[b][1,5]naphthyridin-10-yl)amino]-2,6-bis(1-pyrrolidinylmethyl)phenol phosphate (1:4)], for which the CC50 in series [1] was 51.6 µM; in series [2] it was 3.52 µM; in series [8], 37.1 µM; in [11] it was 3.85 µM; in series [12], 43.1 µM. Moreover, the EC50 in [3] was above 3.85 µM; in series [3] (setting [24]) it was above 3.52 µM. Besides, the “activity against SARS-CoV-2 in Vero 76” value in series [3] was “no activity”. Further, the “activity in VSV-pseudotype neutralization assay” value in [4] was “no measurable activity”. In [4], this molecule showed a neutralization below 50%. Further, the figures for the IC50 in series [5] and in series [15] were 0.198 µM and 2.75 µM, respectively. The “activity against SARS-CoV-2 in Vero E6” value in [6] was “no activity; also recorded: no inhibition”. In addition, in series [7], the “decrease of virus titer” value was 2.83 logTCID50/mL. Besides, the “activity against SARS-CoV-2 in Calu-3” value in series [9] is listed as “no activity”. The same molecule had an EC90 in series [10] of 5.49 µM. Besides, the Kd in series [13] was 7.34 µM. Further, the “weaker affinity for spike RBD compared to ACE2” value in series [14] is on record as 20–40 times.

As to `CCN(CC)CCCC(C)Nc1c2ccc(Cl)cc2nc2ccc(OC)cc12` (stereo not shown) [quinacrine], the CC50 amounted to 229 µM in [1], 7.33 µM in series [2] and 6.87 µM in series [11]. For the same molecule, the results for the EC50 in series [3], in series [3] (setting [24]) and in [16] were above 6.87 µM, above 7.33 µM and 2.83 µM, respectively. In addition, the “activity against SARS-CoV-2 in Vero 76” value in series [3] is recorded as “no in vitro activity”. In addition, the values for the IC50 in series [5] and in series [15] were below 0.2 µM and 2.3 µM, respectively. In addition, in series [6], the “activity against SARS-CoV-2 in Vero E6” value is “no in vitro activity; also recorded: no inhibition”. In addition, the “decrease of virus titer” value in series [7] is 3.9 logTCID50/mL. Further, the “activity against SARS-CoV-2 in Calu-3” value in series [9] is reported as “no in vitro activity”. In addition, the 90% effect level in series [10] (EC90) was put at 10.5 µM. The infected cells result in [17] was “significant decrease”. Moreover, the Kd in series [13] is 7.55 µM. Also, the “binding to spike RBD” value in series [14] is reported as “did not demonstrate reproducible binding”.

Turning to `CCC(CC)COC(=O)[C@H](C)N[P@](=O)(OC[C@H]1O[C@@](C#N)(c2ccc3c(N)ncnn23)[C@H](O)[C@@H]1O)Oc1ccccc1` [remdesivir], the “inhibition of SARS-CoV-2, cell-associated viral RNA levels” value in [18] was around 50%. Further, the inhibition at 0.6 µM in [19] (Severe acute respiratory syndrome coronavirus 2, Calu-3, read-out: inhibition PFU/mL) is around 100%. Further, in series [9], the IC50 worked out at 0.016 µM.

Regarding ACE2, the Kd in [20] is around 0.015 µM.

As for `CCN(CC)CCOc1ccc2c(c1)C(=O)c1cc(OCCN(CC)CC)ccc1-2` [tilorone], the results for the CC50 in series [1] and in series [2] were 111 µM and 49.6 µM, respectively. The IC50 in series [19] (Severe acute respiratory syndrome coronavirus 2, Calu-3, 48 h) is around 9 µM; in [5] it was 0.18 µM; in [21], 4 µM; in series [22], around 4 µM; in [9] it was 10.8 µM; in [15], around 20 µM. In series [3] (setting [24]), this molecule returned a concentration for a half-maximal effect (EC50) of 6.62 µM. The “activity in VSV-pseudotype neutralization assay” value in series [4] is recorded as “no measurable activity”. Also, the neutralization in series [4] is on record as below 50%. Further, the “activity against SARS-CoV-2 in Vero E6” value in [6] is listed as “no inhibition”. Also, the “inhibition of HCoV-229E” value in series [7] is reported as “did not show significant inhibition”. The molecule also had an EC90 in series [10] of 29 µM. Also, in series [13], the Kd is 0.73 µM. For the same molecule, the “weaker affinity for spike RBD compared to ACE2” value in series [14] is 20–40 times. For the same molecule, the antiviral activity result in series [23] is “did not show antiviral activity”.
